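The concentration for 50% growth inhibition is given as GI50. TGI is the concentration that stops growth completely.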
Tests used:
Experiment in all cases: growth of human tumour cells (NCI), 384-well format
786-0 renal = test system: 786-0 renal
A498 renal = test system: A498 renal
A549 NSCLC = test system: A549 NSCLC
ACHN renal = test system: ACHN renal
BT-549 breast = test system: BT-549 breast
CAKI-1 renal = test system: CAKI-1 renal
CCRF-CEM leukemia = test system: CCRF-CEM leukemia
COLO 205 colon = test system: COLO 205 colon
DU-145 prostate = test system: DU-145 prostate
EKVX NSCLC = test system: EKVX NSCLC
HCC-2998 colon = test system: HCC-2998 colon
HCT-116 colon = test system: HCT-116 colon
HCT-15 colon = test system: HCT-15 colon
HL-60(TB) leukemia = test system: HL-60(TB) leukemia
HOP-62 NSCLC = test system: HOP-62 NSCLC
HOP-92 NSCLC = test system: HOP-92 NSCLC
HS 578T breast = test system: HS 578T breast
HT29 colon = test system: HT29 colon
IGROV1 ovarian = test system: IGROV1 ovarian
K-562 leukemia = test system: K-562 leukemia
KM12 colon = test system: KM12 colon
LOX IMVI melanoma = test system: LOX IMVI melanoma
M14 melanoma = test system: M14 melanoma
MALME-3M melanoma = test system: MALME-3M melanoma
MCF7 breast = test system: MCF7 breast
MDA-MB-231 breast = test system: MDA-MB-231 breast
MDA-MB-435 melanoma = test system: MDA-MB-435 melanoma
MDA-MB-468 breast = test system: MDA-MB-468 breast
MOLT-4 leukemia = test system: MOLT-4 leukemia
NCI-H226 lung = test system: NCI-H226 lung

SMILES: Cc1noc(C)c1-c1cnc2c(-c3ccc(C(=O)O)cc3)cn([C@@H](C)c3ccccn3)c2c1
- GI50 ([…]-0 renal): 147 nM
- TGI (786-0 renal): 9.25 µM
- GI50 (A498 renal): 283 nM
- TGI (A498 renal): 2830 nM
- GI50 (A549 NSCLC): 755 nM
- TGI (A549 NSCLC): > 100 µM
- GI50 (ACHN renal): 627 nM
- TGI (ACHN renal): 14.9 µM
- GI50 (BT-549 breast): 60.1 nM
- TGI (BT-549 breast): 761 nM
- TGI (CAKI-1 renal): 3.46 µM
- GI50 (CCRF-CEM leukemia): 75.8 nM
- TGI (CCRF-CEM leukemia): 2790 nM
- GI50 (COLO 205 colon): 418 nM
- TGI (COLO 205 colon): 6.01 µM
- GI50 (DU-145 prostate): 2400 nM
- TGI (DU-145 prostate): > 100 µM
- GI50 (EKVX NSCLC): 2950 nM
- TGI (EKVX NSCLC): > 100 µM
- GI50 (HCC-2998 colon): 117 nM
- TGI (HCC-2998 colon): 1050 nM
- GI50 (HCT-116 colon): 552 nM
- TGI (HCT-116 colon): 23.1 µM
- GI50 (HCT-15 colon): 205 nM
- TGI (HCT-15 colon): 10.8 µM
- GI50 (HL-60(TB) leukemia): 16.1 nM
- TGI (HL-60(TB) leukemia): 142 nM
- GI50 (HOP-62 NSCLC): 228 nM
- TGI (HOP-62 NSCLC): 9.58 µM
- GI50 (HOP-92 NSCLC): 188 nM
- TGI (HOP-92 NSCLC): 39.4 µM
- GI50 (HS 578T breast): 51.4 nM
- TGI (HS 578T breast): 1280 nM
- GI50 (HT29 colon): 301 nM
- TGI (HT29 colon): > 100 µM
- GI50 (IGROV1 ovarian): 78.7 nM
- TGI (IGROV1 ovarian): 1980 nM
- GI50 (K-562 leukemia): 173 nM
- TGI (K-562 leukemia): > 100 µM
- GI50 (KM12 colon): 579 nM
- TGI (KM12 colon): 19.3 µM
- GI50 (LOX IMVI melanoma): 144 nM
- TGI (LOX IMVI melanoma): 381 nM
- GI50 (M14 melanoma): 209 nM
- TGI (M14 melanoma): 51.9 µM
- TGI (MALME-3M melanoma): 1730 nM
- GI50 (MCF7 breast): 15.9 nM
- TGI (MCF7 breast): 3.13 µM
- GI50 (MDA-MB-231 breast): 123 nM
- TGI (MDA-MB-231 breast): 23.8 µM
- GI50 (MDA-MB-435 melanoma): 805 nM
- TGI (MDA-MB-435 melanoma): > 100 µM
- GI50 (MDA-MB-468 breast): 72.1 nM
- TGI (MDA-MB-468 breast): 919 nM
- GI50 (MOLT-4 leukemia): 103 nM
- TGI (MOLT-4 leukemia): 1470 nM
- GI50 (NCI-H226 lung): 406 nM

From PubChem BioAssay (NCI)
